Measurements: PMC9090415, “Discovery of small molecule inhibitors of Plasmodium falciparum apicoplast DNA polymerase” (Journal of Enzyme Inhibition and Medicinal Chemistry, 2022)

Target: P. falciparum apicoplast DNA polymerase (Pf-apPOL) (Plasmodium falciparum, UniProt Q8ILY1)
Assay: Fluorescence-based high-throughput DNA polymerase assay (molecular beacon), primary screen and dose-response;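 on % inhibition ApPOL 90': test concentration in µM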;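 on % inhibition apPOL 180': test concentration in µM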
Format: biochemical
Settings: for DNA Pol: 90 min, 10 µM; for IC50: supplemental file 2, sheet IC50 nontoxic compounds, Pf-apPOL
Procedure, shortened: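 Single-point screening used 10 µM compound with 20 nM polymerase, 20 nM hairpin substrate and 6 µM dNTPs for 90 min at 25 °C. Confirmatory titrations (2.5–80 µM) followed fluorescence at three times, and IC50 was derived from a fit including a cooperativity term n.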

[1] = primary screen value of the 186 hits, unit not given

P. falciparum apicoplast DNA polymerase (Pf-apPOL), sequence (Q8ILY1 entry or part of it): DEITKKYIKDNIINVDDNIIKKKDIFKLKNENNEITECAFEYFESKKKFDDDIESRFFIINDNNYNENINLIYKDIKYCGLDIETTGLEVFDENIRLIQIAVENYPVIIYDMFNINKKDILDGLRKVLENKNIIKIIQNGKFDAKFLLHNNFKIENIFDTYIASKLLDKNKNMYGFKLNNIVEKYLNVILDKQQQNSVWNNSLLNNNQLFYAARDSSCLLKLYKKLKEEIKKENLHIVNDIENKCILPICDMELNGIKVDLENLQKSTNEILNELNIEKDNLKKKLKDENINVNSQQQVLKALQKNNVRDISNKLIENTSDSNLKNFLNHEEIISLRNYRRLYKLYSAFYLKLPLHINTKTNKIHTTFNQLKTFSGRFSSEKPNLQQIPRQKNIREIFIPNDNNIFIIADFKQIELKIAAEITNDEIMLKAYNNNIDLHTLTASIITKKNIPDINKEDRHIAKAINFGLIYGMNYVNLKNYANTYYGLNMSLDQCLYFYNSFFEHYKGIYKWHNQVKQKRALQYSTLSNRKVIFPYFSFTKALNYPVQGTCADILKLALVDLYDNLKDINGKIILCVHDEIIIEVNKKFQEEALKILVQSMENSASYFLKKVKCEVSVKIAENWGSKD

Q: Which results are given for `O=[N+]([O-])/C=C/c1ccc(-c2ccc(Br)cc2)o1` [Molecule 31, O=N(=O)/C=C/c1ccc(o1)c1ccc(cc1)Br]?
A: % inhibition Apo pol 10' (DRC-1, concentration 2.5): 11.7941%; % inhibition Apo pol 10' (DRC-1, concentration 5): 25.8836%; % inhibition Apo pol 10' (DRC-1, concentration 10): 48.5342%; % inhibition Apo pol 10' (DRC-1, concentration 20): 74.9493%; % inhibition Apo pol 10' (DRC-1, concentration 40): 80.1629%; % inhibition Apo pol 10' (DRC-1, concentration 80): 73.881%; % inhibition Apol 90' (DRC-1, 90', concentration 2.5): 4.734%; % inhibition Apol 90' (DRC-1, 90', concentration 5): 14.8546%; % inhibition Apol 90' (DRC-1, 90', concentration 10): 35.3896%; % inhibition Apol 90' (DRC-1, 90', concentration 20): 66.0417%; % inhibition Apol 90' (DRC-1, 90', concentration 40): 79.0677%; % inhibition Apol 90' (DRC-1, 90', concentration 80): 80.1627%; % inhibition apPOL 180' (DRC-1, 180', concentration 2.5): -3.116%; % inhibition apPOL 180' (DRC-1, 180', concentration 5): 3.824%; % inhibition apPOL 180' (DRC-1, 180', concentration 10): 20.4945%; % inhibition apPOL 180' (DRC-1, 180', concentration 20): 51.8012%; % inhibition apPOL 180' (DRC-1, 180', concentration 40): 73.5889%; % inhibition apPOL 180' (DRC-1, 180', concentration 80): 81.6814%; % inhibition Apo pol 5' (DRC-2, 5', concentration 10 (unit not given)): 31%; % inhibition Apol 40' (DRC-2, 40', concentration 10 (unit not given)): 48%; % inhibition Apol 40' (DRC-2, 40', concentration 20 (unit not given)): 53%; % inhibition Apol 40' (DRC-2, 40', concentration 80 (unit not given)): 48%; % inhibition ApPOL 90' (DRC-2, 90', concentration 5 (unit not given)): 31%; % inhibition ApPOL 90' (DRC-2, 90', concentration 10 (unit not given)): 48%; % inhibition apPOL 180' (DRC-2, 180', concentration 5 (unit not given)): 21%; % inhibition apPOL 180' (DRC-2, 180', concentration 20 (unit not given)): 53%; % inhibition Apo pol 5' (DRC-2, 5', concentration 2.5): 3.31%; % inhibition Apo pol 5' (DRC-2, 5', concentration 5): 21%; % inhibition Apo pol 5' (DRC-2, 5', concentration 5 (unit not given)): 21%; % inhibition Apo pol 5' (DRC-2, 5', concentration 10): 31%; % inhibition Apo pol 5' (DRC-2, 5', concentration 20): 26%; % inhibition Apo pol 5' (DRC-2, 5', concentration 40): 18%; % inhibition Apo pol 5' (DRC-2, 5', concentration 80): 2.17%; % inhibition Apol 40' (DRC-2, 40', concentration 2.5): 6%; % inhibition Apol 40' (DRC-2, 40', concentration 5): 33%; % inhibition Apol 40' (DRC-2, 40', concentration 10): 48%; % inhibition Apol 40' (DRC-2, 40', concentration 20): 53%; % inhibition Apol 40' (DRC-2, 40', concentration 40): 54%; % inhibition Apol 40' (DRC-2, 40', concentration 80): 48%; % inhibition ApPOL 90' (DRC-2, 90', concentration 2.5): 4%; % inhibition ApPOL 90' (DRC-2, 90', concentration 5): 31%; % inhibition ApPOL 90' (DRC-2, 90', concentration 10): 48%; % inhibition ApPOL 90' (DRC-2, 90', concentration 20): 56%; % inhibition ApPOL 90' (DRC-2, 90', concentration 40): 60%; % inhibition ApPOL 90' (DRC-2, 90', concentration 80): 59%; % inhibition apPOL 180' (DRC-2, 180', concentration 2.5): -3.28%; % inhibition apPOL 180' (DRC-2, 180', concentration 5): 21%; % inhibition apPOL 180' (DRC-2, 180', concentration 10): 39%; % inhibition apPOL 180' (DRC-2, 180', concentration 20): 53%; % inhibition apPOL 180' (DRC-2, 180', concentration 40): 62%; % inhibition apPOL 180' (DRC-2, 180', concentration 80): 66%; DNA Pol [1]: 57; DNA Pol (primary screen value, head "DNA Pol", unit not given): 57

Q: With `O=C(O)CCS(=O)(=O)c1ccc(-c2ccc(S(=O)(=O)CCC(=O)O)cc2)cc1` [Molecule 32] as the compound, how does the IC50 read?
A: 5.7 µM

Q: For `COc1cc(Cl)c(C)cc1NC(=O)Cn1ccc2c(=O)[nH]ccc21` [Molecule 33, COc1cc(Cl)c(cc1NC(=O)Cn1ccc2c1cc[nH]c2=O)C], which “% inhibition Apo pol 10'” value (DRC-1, concentration 2.5) is on record?
A: 1.493%

Q: What about the “% inhibition Apo pol 10'” value (DRC-1, concentration 5) of the same compound?
A: 13.6047%

Q: What about the “% inhibition Apo pol 10'” value (DRC-1, concentration 10) of the same compound?
A: 50.6447%

Q: And the “% inhibition Apo pol 10'” value (DRC-1, concentration 20)?
A: 68.9678%

Q: And the “% inhibition Apo pol 10'” value (DRC-1, concentration 40)?
A: 82.7027%

Q: What about the “% inhibition Apo pol 10'” value (DRC-1, concentration 80) of the same compound?
A: 78.8716%

Q: And the “% inhibition Apol 90'” value (DRC-1, 90', concentration 2.5)?
A: -1.924%

Q: And the “% inhibition Apol 90'” value (DRC-1, 90', concentration 5)?
A: 4.488%

Q: And the “% inhibition Apol 90'” value (DRC-1, 90', concentration 10)?
A: 37.9384%

Q: What about the “% inhibition Apol 90'” value (DRC-1, 90', concentration 20) of the same compound?
A: 62.017%

Q: What about the “% inhibition Apol 90'” value (DRC-1, 90', concentration 40) of the same compound?
A: 81.936%

Q: What about the “% inhibition Apol 90'” value (DRC-1, 90', concentration 80) of the same compound?
A: 83.5925%

Q: And the “% inhibition apPOL 180'” value (DRC-1, 180', concentration 2.5)?
A: -6.054%

Q: What about the “% inhibition apPOL 180'” value (DRC-1, 180', concentration 5) of the same compound?
A: -2.934%

Q: What about the “% inhibition apPOL 180'” value (DRC-1, 180', concentration 10) of the same compound?
A: 23.1917%

Q: And the “% inhibition apPOL 180'” value (DRC-1, 180', concentration 20)?
A: 50.4837%

Q: What about the “% inhibition apPOL 180'” value (DRC-1, 180', concentration 40) of the same compound?
A: 76.46%

Q: What about the “% inhibition apPOL 180'” value (DRC-1, 180', concentration 80) of the same compound?
A: 83.9917%

Q: What about the “% inhibition Apo pol 5'” value (DRC-2, 5', concentration 2.5) of the same compound?
A: -0.547%

Q: And the “% inhibition Apo pol 5'” value (DRC-2, 5', concentration 5)?
A: 14%

Q: What about the “% inhibition Apo pol 5'” value (DRC-2, 5', concentration 10) of the same compound?
A: 36%

Q: And the “% inhibition Apo pol 5'” value (DRC-2, 5', concentration 20)?
A: 42%

Q: What about the “% inhibition Apo pol 5'” value (DRC-2, 5', concentration 40) of the same compound?
A: 40%

Q: What about the “% inhibition Apo pol 5'” value (DRC-2, 5', concentration 80) of the same compound?
A: 31%

Q: What about the “% inhibition Apol 40'” value (DRC-2, 40', concentration 2.5) of the same compound?
A: -1.56%

Q: What about the “% inhibition Apol 40'” value (DRC-2, 40', concentration 5) of the same compound?
A: 18%

Q: What about the “% inhibition Apol 40'” value (DRC-2, 40', concentration 10) of the same compound?
A: 46%

Q: What about the “% inhibition Apol 40'” value (DRC-2, 40', concentration 20) of the same compound?
A: 60%

Q: And the “% inhibition Apol 40'” value (DRC-2, 40', concentration 40)?
A: 62%

Q: And the “% inhibition Apol 40'” value (DRC-2, 40', concentration 80)?
A: 57%

Q: What about the “% inhibition ApPOL 90'” value (DRC-2, 90', concentration 2.5) of the same compound?
A: -2%

Q: And the “% inhibition ApPOL 90'” value (DRC-2, 90', concentration 5)?
A: 15%

Q: What about the “% inhibition ApPOL 90'” value (DRC-2, 90', concentration 10) of the same compound?
A: 45%

Q: And the “% inhibition ApPOL 90'” value (DRC-2, 90', concentration 20)?
A: 61%

Q: What about the “% inhibition ApPOL 90'” value (DRC-2, 90', concentration 40) of the same compound?
A: 65%

Q: And the “% inhibition ApPOL 90'” value (DRC-2, 90', concentration 80)?
A: 63%

Q: And the “% inhibition apPOL 180'” value (DRC-2, 180', concentration 2.5)?
A: -9%

Q: What about the “% inhibition apPOL 180'” value (DRC-2, 180', concentration 5) of the same compound?
A: 6.65%

Q: And the “% inhibition apPOL 180'” value (DRC-2, 180', concentration 10)?
A: 35%

Q: What about the “% inhibition apPOL 180'” value (DRC-2, 180', concentration 20) of the same compound?
A: 56%

Q: What about the “% inhibition apPOL 180'” value (DRC-2, 180', concentration 40) of the same compound?
A: 67%

Q: And the “% inhibition apPOL 180'” value (DRC-2, 180', concentration 80)?
A: 68%

Q: What about the “DNA Pol” value (primary screen value by plate and well) of the same compound?
A: 43

Q: What about the “DNA Pol” value [1] of the same compound?
A: 43

Q: For `COc1cc(Cl)c(C)cc1NC(=O)Cn1ccc2c(=O)[nH]ccc21` [Molecule 33], which IC50 is on record?
A: 10.3 µM
